# In patent US8063065B2, “Azaindazole compounds as CCR1 receptor antagonists” (Boehringer Ingelheim International GmbH, priority 2008, dated 2011):
# Target: T1, CCR1 (Homo sapiens, UniProt P32246)
# T1 sequence (P32246 1-355): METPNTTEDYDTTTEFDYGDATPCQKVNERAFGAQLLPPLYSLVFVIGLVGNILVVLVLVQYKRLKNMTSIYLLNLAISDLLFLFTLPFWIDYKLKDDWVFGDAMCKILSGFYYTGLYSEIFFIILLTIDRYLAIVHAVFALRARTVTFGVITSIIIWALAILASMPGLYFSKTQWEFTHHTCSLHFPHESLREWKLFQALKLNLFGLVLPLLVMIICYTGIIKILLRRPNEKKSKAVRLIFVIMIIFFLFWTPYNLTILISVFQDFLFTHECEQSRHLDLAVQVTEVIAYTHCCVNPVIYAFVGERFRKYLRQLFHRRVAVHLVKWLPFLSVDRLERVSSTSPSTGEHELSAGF
# Assay: Method B: calcium flux in CCR1 transfected cells (Calcium 4 dye, […] FDSS6000), block of the CCR1/MIP-1α interaction
# Type: cell-based
# Settings: Method B: Calcium 4 dye, MIP-1alpha at EC80
# Description: Compounds are assessed for the ability to block the interaction of CCR1 and MIP-1α in a functional cellular assay measuring calcium flux in CCR1 transfected cells.
# Method B: Non-adherent cells purchased from Chemicon Corporation (HTS005C), stably expressing recombinant CCR1 and G-alpha-16 are grown in RPMI 1640 medium (Mediatech 10-080-CM) supplemented with 10% FBS, 0.4 mg/mL Geneticin and penicillin/streptomycin. On the day of the assay, the cells are loaded with Calcium 4 dye (Molecular Devices R7448) with Probenecid (Invitrogen P346400) at 8E5 cells/mL for 1 hour at room temperature. After 1 hour, they are seeded in a 384-well tissue culture-treated plate at a density of 20,000 cells/well. Appropriately diluted test compound is added to the well to achieve a top concentration of 3,000 nM (diluted 4-fold with 10 doses total). The final concentration of DMSO is 1%. The buffer is HBSS (Invitrogen 14025) with 20 mM HEPES at pH 7.4. The cells incubate 30 minutes at 37 C and then 30 minutes at room temperature. The plates are transferred to the […] FDSS6000 where MIP-1alpha in 1% BSA is added at the EC80 final concentration. All plates must be read within 4 hours of the start of dye-loading. Wells+/−MIP-1alpha containing diluted DMSO instead of compound serve as the controls. Data are analyzed using Activity Base software.
row,Compound,IC50 [nM]
1,"CCC(NC(=O)c1cncc2c1cnn2-c1ccc(F)cc1)c1nc(C(=O)NC)c(C)o1 (centres unmarked) [1-(4-Fluorophenyl)-1H-pyrazolo[3,4-c]pyridine-4-carboxylic acid [1-(5-methyl-4-methylcarbamoyl-oxazol-2-yl)-propyl]-amide]",9
2,"CCC(NC(=O)c1cncc2c1cnn2-c1ccc(F)cc1)c1ccc(S(C)(=O)=O)[n+]([O-])c1 (centres unmarked) [1-(4-Fluorophenyl)-1H-pyrazolo[3,4-c]pyridine-4-carboxylic acid [1-(6-methanesulfonyl-1-oxy-pyridin-3-yl)-propyl]-amide]",9
3,"CCC(CC)(NC(=O)c1cncc2c1cnn2-c1ccc(F)cc1)c1cnc(S(C)(=O)=O)s1 [1-(4-Fluorophenyl)-1H-pyrazolo[3,4-c]pyridine-4-carboxylic acid [1-ethyl-1-(2-methanesulfonyl-thiazol-5-yl)-propyl]-amide]",28
4,"CC(C)(O)CNc1cc(CNC(=O)c2cncc3c2cnn3-c2ccc(F)cc2)cc(S(C)(=O)=O)n1 [1-(4-Fluorophenyl)-1H-pyrazolo[3,4-c]pyridine-4-carboxylic acid [2-(2-hydroxy-2-methyl-propylamino)-6-methanesulfonyl-pyridin-4-ylmethyl]-amide]",0.7
5,"CS(=O)(=O)c1cc(CNC(=O)c2cncc3c2cnn3-c2ccc(F)cc2)cc(NCC(N)=O)n1 [1-(4-Fluorophenyl)-1H-pyrazolo[3,4-c]pyridine-4-carboxylic acid [2-(carbamoylmethyl-amino)-6-methanesulfonyl-pyridin-4-ylmethyl]-amide]",11
6,"CN(CC(N)=O)c1cc(CNC(=O)c2cncc3c2cnn3-c2ccc(F)cc2)cc(S(C)(=O)=O)n1 [1-(4-Fluorophenyl)-1H-pyrazolo[3,4-c]pyridine-4-carboxylic acid [2-(carbamoylmethyl-methyl-amino)-6-methanesulfonyl-pyridin-4-ylmethyl]-amide]",3
7,"CN(c1ncc(CNC(=O)c2cncc3c2cnn3-c2ccc(F)cc2)cn1)S(C)(=O)=O [1-(4-Fluorophenyl)-1H-pyrazolo[3,4-c]pyridine-4-carboxylic acid [2-(methanesulfonyl-methyl-amino)-pyrimidin-5-ylmethyl]-amide]",2
8,"O=C(N[C@@H](CO)c1ccnc(Br)c1)c1cncc2c1cnn2-c1ccc(F)cc1 [1-(4-Fluorophenyl)-1H-pyrazolo[3,4-c]pyridine-4-carboxylic acid [(R)-1-(2-bromo-pyridin-4-yl)-2-hydroxy-ethyl]-amide]",2
9,"COC[C@H](NC(=O)c1cncc2c1cnn2-c1ccc(F)cc1)c1ccnc(Br)c1 [1-(4-Fluorophenyl)-1H-pyrazolo[3,4-c]pyridine-4-carboxylic acid [(R)-1-(2-bromopyridin-4-yl)-2-methoxy-ethyl]-amide]",0.5
10,"COC[C@H](NC(=O)c1cncc2c1cnn2-c1ccc(F)cc1)c1ccnc(S(C)(=O)=O)c1 [1-(4-Fluorophenyl)-1H-pyrazolo[3,4-c]pyridine-4-carboxylic acid [(R)-1-(2-methanesulfonyl-pyridin-4-yl)-2-methoxy-ethyl]-amide]",1
11,"CCC[C@@H](NC(=O)c1cncc2c1cnn2-c1ccc(F)cc1)c1ccc(OC)c(Br)c1 [1-(4-Fluorophenyl)-1H-pyrazolo[3,4-c]pyridine-4-carboxylic acid [(R)-1-(3-bromo-4-methoxy-phenyl)-butyl]-amide]",0.3
12,"CC[C@@H](NC(=O)c1cncc2c1cnn2-c1ccc(F)cc1)c1ccc(OC)c(Br)c1 [1-(4-Fluorophenyl)-1H-pyrazolo[3,4-c]pyridine-4-carboxylic acid [(R)-1-(3-bromo-4-methoxy-phenyl)-propyl]-amide]",0.2
13,"CCC[C@@H](NC(=O)c1cncc2c1cnn2-c1ccc(F)cc1)c1ccc(OC)c(S(C)(=O)=O)c1 [1-(4-Fluorophenyl)-1H-pyrazolo[3,4-c]pyridine-4-carboxylic acid [(R)-1-(3-methanesulfonyl-4-methoxy-phenyl)-butyl]-amide]",0.2
14,"CC[C@@H](NC(=O)c1cncc2c1cnn2-c1ccc(F)cc1)c1ccc(OC)c(S(C)(=O)=O)c1 [1-(4-Fluorophenyl)-1H-pyrazolo[3,4-c]pyridine-4-carboxylic acid [(R)-1-(3-methanesulfonyl-4-methoxy-phenyl)-propyl]-amide]",0.2
15,"CCC[C@@H](NC(=O)c1cncc2c1cnn2-c1ccc(F)cc1)c1ccc(O)c(S(C)(=O)=O)c1 [1-(4-Fluorophenyl)-1H-pyrazolo[3,4-c]pyridine-4-carboxylic acid [(R)-1-(4-hydroxy-3-methanesulfonyl-phenyl)-butyl]-amide]",0.2
16,"CC[C@H](NC(=O)c1cncc2c1cnn2-c1ccc(F)cc1)c1ccn(S(C)(=O)=O)n1 [1-(4-Fluorophenyl)-1H-pyrazolo[3,4-c]pyridine-4-carboxylic acid [(S)-1-(1-methanesulfonyl-1H-pyrazol-3-yl)-propyl]-amide]",3
17,"CC[C@H](NC(=O)c1cncc2c1cnn2-c1ccc(F)cc1)c1ccnc(C#N)c1 [1-(4-Fluorophenyl)-1H-pyrazolo[3,4-c]pyridine-4-carboxylic acid [(S)-1-(2-cyano-pyridin-4-yl)-propyl]-amide]",0.3
18,"CC[C@H](NC(=O)c1cncc2c1cnn2-c1ccc(F)cc1)c1cc(N(C)C)nc(S(C)(=O)=O)c1 [1-(4-Fluorophenyl)-1H-pyrazolo[3,4-c]pyridine-4-carboxylic acid [(S)-1-(2-dimethylamino-6-methanesulfonyl-pyridin-4-yl)-propyl]-amide]",0.2

# Continued, values first:
row,IC50 [nM],Compound
1,16,"CCC(CC)(NC(=O)c1cncc2c1cnn2-c1ccc(F)cc1)c1ccnc(S(C)(=O)=O)c1 [1-(4-Fluorophenyl)-1H-pyrazolo[3,4-c]pyridine-4-carboxylic acid [1-ethyl-1-(2-methanesulfonyl-pyridin-4-yl)-propyl]-amide]"
2,24,"CC(=O)N(C)c1ncc(CNC(=O)c2cncc3c2cnn3-c2ccc(F)cc2)cn1 [1-(4-Fluorophenyl)-1H-pyrazolo[3,4-c]pyridine-4-carboxylic acid [2-(acetyl-methyl-amino)-pyrimidin-5-ylmethyl]-amide]"
3,7,"CC[C@@H](NC(=O)c1cncc2c1cnn2-c1ccc(F)cc1)c1cc(S(C)(=O)=O)cn1C [1-(4-Fluorophenyl)-1H-pyrazolo[3,4-c]pyridine-4-carboxylic acid [(R)-1-(4-methanesulfonyl-1-methyl-1H-pyrrol-2-yl)-propyl]-amide]"
4,6,"CS(=O)(=O)c1cc([C@H](CO)NC(=O)c2cncc3c2cnn3-c2ccc(F)cc2)ccn1 [1-(4-Fluorophenyl)-1H-pyrazolo[3,4-c]pyridine-4-carboxylic acid [(R)-2-hydroxy-1-(2-methanesulfonyl-pyridin-4-yl)-ethyl]-amide]"
5,11,"CC[C@H](NC(=O)c1cncc2c1cnn2-c1ccc(F)cc1)c1cnn(C)c1 [1-(4-Fluorophenyl)-1H-pyrazolo[3,4-c]pyridine-4-carboxylic acid [(S)-1-(1-methyl-1H-pyrazol-4-yl)-propyl]-amide]"
6,36,"CC[C@H](NC(=O)c1cncc2c1cnn2-c1ccc(F)cc1)c1cn[nH]c1 [1-(4-Fluorophenyl)-1H-pyrazolo[3,4-c]pyridine-4-carboxylic acid [(S)-1-(1H-pyrazol-4-yl)-propyl]-amide]"
7,0.4,"C[C@H](NC(=O)c1cncc2c1cnn2-c1ccc(F)cc1)c1ccnc(Br)c1 [1-(4-Fluorophenyl)-1H-pyrazolo[3,4-c]pyridine-4-carboxylic acid [(S)-1-(2-bromopyridin-4-yl)-ethyl]-amide]"
8,1,"CC[C@H](NC(=O)c1cncc2c1cnn2-c1ccc(F)cc1)c1ccnc(C(N)=O)c1 [1-(4-Fluorophenyl)-1H-pyrazolo[3,4-c]pyridine-4-carboxylic acid [(S)-1-(2-carbamoyl-pyridin-4-yl)-propyl]-amide]"
9,0.3,"CC[C@H](NC(=O)c1cncc2c1cnn2-c1ccc(F)cc1)c1cc(Cl)nc(S(C)(=O)=O)c1 [1-(4-Fluorophenyl)-1H-pyrazolo[3,4-c]pyridine-4-carboxylic acid [(S)-1-(2-chloro-6-methanesulfonyl-pyridin-4-yl)-propyl]-amide]"
10,0.2,"CC[C@H](NC(=O)c1cncc2c1cnn2-c1ccc(F)cc1)c1ccnc(Cl)c1 [1-(4-Fluorophenyl)-1H-pyrazolo[3,4-c]pyridine-4-carboxylic acid [(S)-1-(2-chloropyridin-4-yl)-propyl]-amide]"
11,0.2,"C[C@H](NC(=O)c1cncc2c1cnn2-c1ccc(F)cc1)c1cc(N(C)C)nc(S(C)(=O)=O)c1 [1-(4-Fluorophenyl)-1H-pyrazolo[3,4-c]pyridine-4-carboxylic acid [(S)-1-(2-dimethylamino-6-methanesulfonyl-pyridin-4-yl)-ethyl]-amide]"
